Where two headings read alike, the source gives them in different places.
Assays:
Assay in all cases: Radiolabeled ATP kinase assay, panel of 371 kinases (Table S6)
Format in all cases: biochemical
[1] = target: T1, panel of 371 human kinases (Homo sapiens, UniProt Q15831); conditions: LKB1; 0.1 μM; 10 μM ATP; read-out: % Enzyme Activity (relative to DMSO controls)
T1 construct: purchased Reaction Biology Corp
Source text: (§1) ; FIG. 38C). […]. Further targeted analyses, such as genetic knock-down or knock-out, may be warranted to parse the role of these additional kinases in our model of neurodegeneration.

[2] = target: T2, panel of 371 human kinases (Homo sapiens, UniProt Q6P5Z2); conditions: PKN3/PRK3; 0.1 μM; 10 μM ATP; read-out: % Enzyme Activity (relative to DMSO controls)
T2 construct: purchased Reaction Biology Corp
Source text: as §1

[3] = target: T3, panel of 371 human kinases (Homo sapiens, UniProt P48730); conditions: CK1d; 0.1 μM; 10 μM ATP; read-out: % Enzyme Activity (relative to DMSO controls)
T3 construct: purchased Reaction Biology Corp
Source text: as §1

[4] = target: T4, panel of 371 human kinases (Homo sapiens, UniProt Q6DT37); conditions: DMPK2; 0.1 μM; 10 μM ATP; read-out: % Enzyme Activity (relative to DMSO controls)
T4 construct: purchased Reaction Biology Corp
Source text: as §1

[5] = target: T5, panel of 371 human kinases (Homo sapiens, UniProt P53350); conditions: PLK1; 0.1 μM; 10 μM ATP; read-out: % Enzyme Activity (relative to DMSO controls)
T5 construct: purchased Reaction Biology Corp
T5 sequence (P53350 whole entry): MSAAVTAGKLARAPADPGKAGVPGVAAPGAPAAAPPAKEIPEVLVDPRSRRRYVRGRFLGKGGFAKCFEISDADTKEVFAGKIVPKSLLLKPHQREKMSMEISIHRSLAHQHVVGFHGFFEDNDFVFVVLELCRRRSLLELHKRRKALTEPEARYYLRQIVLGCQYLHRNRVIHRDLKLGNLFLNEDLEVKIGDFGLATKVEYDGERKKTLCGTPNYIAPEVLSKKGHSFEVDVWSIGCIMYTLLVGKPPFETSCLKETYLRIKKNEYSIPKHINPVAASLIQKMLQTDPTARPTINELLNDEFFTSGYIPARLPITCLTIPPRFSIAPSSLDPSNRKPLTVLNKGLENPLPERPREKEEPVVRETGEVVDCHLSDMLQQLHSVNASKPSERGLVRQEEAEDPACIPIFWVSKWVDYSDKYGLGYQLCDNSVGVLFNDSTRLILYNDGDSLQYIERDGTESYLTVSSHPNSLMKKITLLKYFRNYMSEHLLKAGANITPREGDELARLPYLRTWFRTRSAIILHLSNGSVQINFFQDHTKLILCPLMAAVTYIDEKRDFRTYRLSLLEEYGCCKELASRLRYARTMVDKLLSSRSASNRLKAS
Source text: as §1

[6] = target: T6, panel of 371 human kinases (Homo sapiens, UniProt Q9Y6E0); conditions: MST3/STK24; 0.1 μM; 10 μM ATP; read-out: % Enzyme Activity (relative to DMSO controls)
T6 construct: purchased Reaction Biology Corp
T6 sequence (Q9Y6E0 whole entry): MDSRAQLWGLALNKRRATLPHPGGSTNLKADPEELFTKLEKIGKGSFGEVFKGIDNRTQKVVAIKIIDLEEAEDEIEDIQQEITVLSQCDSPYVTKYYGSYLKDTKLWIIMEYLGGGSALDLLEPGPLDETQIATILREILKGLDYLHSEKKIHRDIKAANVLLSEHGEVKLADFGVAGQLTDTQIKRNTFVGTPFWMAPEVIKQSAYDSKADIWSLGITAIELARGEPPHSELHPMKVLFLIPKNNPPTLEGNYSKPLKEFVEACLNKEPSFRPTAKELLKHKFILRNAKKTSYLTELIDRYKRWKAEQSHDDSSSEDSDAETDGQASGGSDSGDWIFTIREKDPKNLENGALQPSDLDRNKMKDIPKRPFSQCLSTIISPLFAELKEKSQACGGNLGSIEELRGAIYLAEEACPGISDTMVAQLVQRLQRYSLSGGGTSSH
Source text: as §1

[7] = target: T7, panel of 371 human kinases (Homo sapiens, UniProt Q9BYT3); conditions: STK33; 0.1 μM; 10 μM ATP; read-out: % Enzyme Activity (relative to DMSO controls)
T7 construct: purchased Reaction Biology Corp
Source text: as §1

[8] = target: T8, panel of 371 human kinases (Homo sapiens, UniProt P29597); conditions: TYK2; 0.1 μM; 10 μM ATP; read-out: % Enzyme Activity (relative to DMSO controls)
T8 construct: purchased Reaction Biology Corp
Source text: as §1

[9] = target: T9, panel of 371 human kinases (Homo sapiens, UniProt Q9H4B4); conditions: PLK3; 0.1 μM; 10 μM ATP; read-out: % Enzyme Activity (relative to DMSO controls)
T9 construct: purchased Reaction Biology Corp
T9 sequence (Q9H4B4 whole entry): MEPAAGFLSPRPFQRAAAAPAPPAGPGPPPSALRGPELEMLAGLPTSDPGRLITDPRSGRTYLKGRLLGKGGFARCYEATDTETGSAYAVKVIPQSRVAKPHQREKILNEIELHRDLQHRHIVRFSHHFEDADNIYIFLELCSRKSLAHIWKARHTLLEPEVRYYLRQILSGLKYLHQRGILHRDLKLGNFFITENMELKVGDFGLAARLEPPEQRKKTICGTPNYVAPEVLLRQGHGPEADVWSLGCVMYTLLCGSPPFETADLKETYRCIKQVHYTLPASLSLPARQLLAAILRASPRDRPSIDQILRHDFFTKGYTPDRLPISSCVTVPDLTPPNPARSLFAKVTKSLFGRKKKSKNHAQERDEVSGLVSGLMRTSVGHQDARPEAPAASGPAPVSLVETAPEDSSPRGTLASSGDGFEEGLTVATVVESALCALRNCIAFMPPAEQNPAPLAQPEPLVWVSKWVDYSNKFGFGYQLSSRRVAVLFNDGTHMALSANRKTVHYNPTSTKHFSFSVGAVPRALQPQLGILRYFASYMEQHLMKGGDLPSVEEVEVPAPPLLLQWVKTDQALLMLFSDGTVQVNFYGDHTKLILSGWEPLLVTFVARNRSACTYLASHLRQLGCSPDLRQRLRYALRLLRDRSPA
Source text: as §1

[10] = target: T10, panel of 371 human kinases (Homo sapiens, UniProt Q00534); conditions: 0.1 μM, 10 μM ATP, read-out: % Enzyme Activity (relative to DMSO controls)
T10 construct: purchased Reaction Biology Corp
T10 sequence (Q00534 whole entry): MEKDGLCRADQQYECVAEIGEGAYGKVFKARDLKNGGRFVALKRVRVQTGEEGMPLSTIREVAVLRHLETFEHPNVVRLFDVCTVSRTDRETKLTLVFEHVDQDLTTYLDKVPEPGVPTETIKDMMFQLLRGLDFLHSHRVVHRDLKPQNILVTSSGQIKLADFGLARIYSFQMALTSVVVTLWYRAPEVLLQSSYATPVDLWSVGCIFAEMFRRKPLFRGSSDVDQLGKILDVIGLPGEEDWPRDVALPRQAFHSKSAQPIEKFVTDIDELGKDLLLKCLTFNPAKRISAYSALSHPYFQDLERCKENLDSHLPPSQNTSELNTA
Source text: as §1

[11] = target: T11, panel of 371 human kinases (Homo sapiens, UniProt P51817); conditions: PRKX; 0.1 μM; 10 μM ATP; read-out: % Enzyme Activity (relative to DMSO controls)
T11 construct: purchased Reaction Biology Corp
Source text: as §1

[12] = target: T12, panel of 371 human kinases (Homo sapiens, UniProt Q8NE63); conditions: HIPK4; 0.1 μM; 10 μM ATP; read-out: % Enzyme Activity (relative to DMSO controls)
T12 construct: purchased Reaction Biology Corp
T12 sequence (Q8NE63 whole entry): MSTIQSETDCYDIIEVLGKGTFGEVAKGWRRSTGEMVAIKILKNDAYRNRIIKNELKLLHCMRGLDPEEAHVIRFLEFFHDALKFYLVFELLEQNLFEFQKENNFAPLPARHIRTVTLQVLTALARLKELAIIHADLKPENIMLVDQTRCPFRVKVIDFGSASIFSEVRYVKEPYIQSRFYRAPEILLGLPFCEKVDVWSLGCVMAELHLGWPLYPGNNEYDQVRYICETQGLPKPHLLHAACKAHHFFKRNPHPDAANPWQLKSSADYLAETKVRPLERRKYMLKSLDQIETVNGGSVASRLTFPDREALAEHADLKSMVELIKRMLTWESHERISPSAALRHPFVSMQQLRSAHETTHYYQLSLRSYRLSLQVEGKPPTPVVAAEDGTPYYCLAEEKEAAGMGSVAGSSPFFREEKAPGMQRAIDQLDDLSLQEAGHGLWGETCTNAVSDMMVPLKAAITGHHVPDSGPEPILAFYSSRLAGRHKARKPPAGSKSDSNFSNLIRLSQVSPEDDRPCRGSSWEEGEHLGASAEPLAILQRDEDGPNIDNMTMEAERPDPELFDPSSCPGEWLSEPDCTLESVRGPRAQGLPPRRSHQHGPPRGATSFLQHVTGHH
Source text: as §1

[13] = target: T13, panel of 371 human kinases (Homo sapiens, UniProt Q7KZI7); conditions: MARK2/PAR-1Ba; 0.1 μM; 10 μM ATP; read-out: % Enzyme Activity (relative to DMSO controls)
T13 construct: purchased Reaction Biology Corp
Source text: as §1

[14] = target: T14, panel of 371 human kinases (Homo sapiens, UniProt P28482); conditions: ERK2/MAPK1; 0.1 μM; 10 μM ATP; read-out: % Enzyme Activity (relative to DMSO controls)
T14 construct: purchased Reaction Biology Corp
Source text: as §1

[15] = target: T15, panel of 371 human kinases (Homo sapiens, UniProt Q86V86); conditions: PIM3; 0.1 μM; 10 μM ATP; read-out: % Enzyme Activity (relative to DMSO controls)
T15 construct: purchased Reaction Biology Corp
Source text: as §1

[16] = target: T16, panel of 371 human kinases (Homo sapiens, UniProt Q14680); conditions: MELK; 0.1 μM; 10 μM ATP; read-out: % Enzyme Activity (relative to DMSO controls)
T16 construct: purchased Reaction Biology Corp
Source text: as §1

[17] = target: T17, panel of 371 human kinases (Homo sapiens, UniProt Q16644); conditions: MAPKAPK3; 0.1 μM; 10 μM ATP; read-out: % Enzyme Activity (relative to DMSO controls)
T17 construct: purchased Reaction Biology Corp
T17 sequence (Q16644 whole entry): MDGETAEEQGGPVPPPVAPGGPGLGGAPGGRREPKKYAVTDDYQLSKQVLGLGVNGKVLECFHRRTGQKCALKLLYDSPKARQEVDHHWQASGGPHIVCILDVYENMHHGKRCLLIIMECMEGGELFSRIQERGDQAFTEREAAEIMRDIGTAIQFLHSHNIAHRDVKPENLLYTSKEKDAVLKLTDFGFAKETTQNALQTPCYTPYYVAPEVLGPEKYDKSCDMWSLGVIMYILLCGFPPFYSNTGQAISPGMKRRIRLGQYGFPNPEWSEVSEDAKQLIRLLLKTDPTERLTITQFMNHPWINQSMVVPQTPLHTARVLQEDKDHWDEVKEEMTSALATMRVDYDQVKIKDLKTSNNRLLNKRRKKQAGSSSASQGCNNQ
Source text: as §1

[18] = target: T18, panel of 371 human kinases (Homo sapiens, UniProt Q96RR4); conditions: CAMKK2; 0.1 μM; 10 μM ATP; read-out: % Enzyme Activity (relative to DMSO controls)
T18 construct: purchased Reaction Biology Corp
T18 sequence (Q96RR4 whole entry): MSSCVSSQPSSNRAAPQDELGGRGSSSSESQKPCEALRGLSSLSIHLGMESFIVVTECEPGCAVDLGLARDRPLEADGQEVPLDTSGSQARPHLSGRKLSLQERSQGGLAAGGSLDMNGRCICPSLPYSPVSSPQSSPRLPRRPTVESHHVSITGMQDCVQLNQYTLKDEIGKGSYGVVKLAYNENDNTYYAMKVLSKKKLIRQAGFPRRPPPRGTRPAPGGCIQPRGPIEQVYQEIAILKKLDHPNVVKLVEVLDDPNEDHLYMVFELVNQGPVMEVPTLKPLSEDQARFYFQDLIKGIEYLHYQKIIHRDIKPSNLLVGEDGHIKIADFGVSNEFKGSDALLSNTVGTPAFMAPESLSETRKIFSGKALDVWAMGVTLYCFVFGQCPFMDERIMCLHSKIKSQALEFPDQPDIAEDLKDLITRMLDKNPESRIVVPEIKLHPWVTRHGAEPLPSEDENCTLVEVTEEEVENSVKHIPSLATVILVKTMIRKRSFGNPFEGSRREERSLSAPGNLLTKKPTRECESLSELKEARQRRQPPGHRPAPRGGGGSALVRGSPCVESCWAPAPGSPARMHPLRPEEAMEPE
Source text: as §1

[19] = target: T19, panel of 371 human kinases (Homo sapiens, UniProt P42685); conditions: FRK/PTK5; 0.1 μM; 10 μM ATP; read-out: % Enzyme Activity (relative to DMSO controls)
T19 construct: purchased Reaction Biology Corp
Source text: as §1

[20] = target: T20, panel of 371 human kinases (Homo sapiens, UniProt Q96PY6); conditions: NEK1; 0.1 μM; 10 μM ATP; read-out: % Enzyme Activity (relative to DMSO controls)
T20 construct: purchased Reaction Biology Corp
Source text: as §1

[21] = target: T21, panel of 371 human kinases (Homo sapiens, UniProt Q9Y4K4); conditions: for remaining activity at 0.1 µM: KHS/MAP4K5, 10 μM ATP, read-out: % Enzyme Activity (relative to DMSO controls)
T21 construct: purchased Reaction Biology Corp
T21 sequence (Q9Y4K4 whole entry): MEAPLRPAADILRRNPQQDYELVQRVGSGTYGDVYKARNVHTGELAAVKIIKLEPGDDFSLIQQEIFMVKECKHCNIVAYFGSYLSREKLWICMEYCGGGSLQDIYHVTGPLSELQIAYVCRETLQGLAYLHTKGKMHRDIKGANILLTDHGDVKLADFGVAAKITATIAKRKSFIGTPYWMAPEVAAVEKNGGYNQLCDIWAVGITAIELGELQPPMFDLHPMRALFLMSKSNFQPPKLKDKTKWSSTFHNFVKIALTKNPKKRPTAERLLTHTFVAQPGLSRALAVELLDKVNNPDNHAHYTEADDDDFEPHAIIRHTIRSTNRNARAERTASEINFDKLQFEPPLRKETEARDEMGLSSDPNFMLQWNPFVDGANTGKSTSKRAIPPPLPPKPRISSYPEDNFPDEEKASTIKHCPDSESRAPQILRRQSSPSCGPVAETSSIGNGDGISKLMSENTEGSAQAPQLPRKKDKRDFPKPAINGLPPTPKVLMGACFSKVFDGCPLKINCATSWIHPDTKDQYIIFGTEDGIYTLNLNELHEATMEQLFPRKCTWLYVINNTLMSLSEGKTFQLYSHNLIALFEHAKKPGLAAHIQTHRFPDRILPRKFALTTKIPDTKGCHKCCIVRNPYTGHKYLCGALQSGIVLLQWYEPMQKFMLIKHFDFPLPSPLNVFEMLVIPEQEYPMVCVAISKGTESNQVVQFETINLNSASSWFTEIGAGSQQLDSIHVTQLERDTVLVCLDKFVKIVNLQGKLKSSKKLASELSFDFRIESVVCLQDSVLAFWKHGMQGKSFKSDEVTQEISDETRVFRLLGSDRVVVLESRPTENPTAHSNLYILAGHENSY
Source text: as §1

[22] = target: T22, panel of 371 human kinases (Homo sapiens, UniProt Q9UHD2); conditions: TBK1; 0.1 μM; 10 μM ATP; read-out: % Enzyme Activity (relative to DMSO controls)
T22 construct: purchased Reaction Biology Corp
Source text: as §1

[23] = target: T23, panel of 371 human kinases (Homo sapiens, UniProt Q9Y463); conditions: DYRK1B; 0.1 μM; 10 μM ATP; read-out: % Enzyme Activity (relative to DMSO controls)
T23 construct: purchased Reaction Biology Corp
Source text: as §1

[24] = target: T24, panel of 371 human kinases (Homo sapiens, UniProt P22607); conditions: FGFR3; 0.1 μM; 10 μM ATP; read-out: % Enzyme Activity (relative to DMSO controls)
T24 construct: purchased Reaction Biology Corp
Source text: as §1

T1 sequence (Q15831 whole entry): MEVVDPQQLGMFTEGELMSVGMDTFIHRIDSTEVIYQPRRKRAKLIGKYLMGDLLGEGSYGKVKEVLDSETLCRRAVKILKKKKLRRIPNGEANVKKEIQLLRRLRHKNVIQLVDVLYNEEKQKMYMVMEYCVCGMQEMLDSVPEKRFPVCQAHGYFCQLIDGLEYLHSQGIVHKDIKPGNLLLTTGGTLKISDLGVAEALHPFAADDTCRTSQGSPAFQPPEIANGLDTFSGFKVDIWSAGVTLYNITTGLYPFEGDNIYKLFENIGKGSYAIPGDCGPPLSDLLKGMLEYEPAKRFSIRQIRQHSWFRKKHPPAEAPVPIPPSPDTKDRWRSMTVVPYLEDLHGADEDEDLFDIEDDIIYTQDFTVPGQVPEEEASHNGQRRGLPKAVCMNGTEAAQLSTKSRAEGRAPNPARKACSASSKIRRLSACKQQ

OCCN1CCN(Cc2ccc(-c3cnc4[nH]cc(-c5cccc(Cl)c5)c4c3)cc2)CC1 [Compound 12k, 2-(4-(4-(3-(3-Chlorophenyl)-1H-pyrrolo[2,3-b]pyridin-5-yl)benzyl)piperazin-1-yl)ethan-1-ol] was tested, and the remaining activity at 0.1 µM [1] was 78.7%, the remaining activity at 0.1 µM [2] was 93.7% and the remaining activity at 0.1 µM [3] was 92.8%. The remaining activity at 0.1 µM [4] was 61.3%, the remaining activity at 0.1 µM [5] was 100% and the remaining activity at 0.1 µM [6] was 78.4%. The remaining activity at 0.1 µM [7] was 88.6%, the remaining activity at 0.1 µM [8] was 92.9% and the remaining activity at 0.1 µM [9] was 103%. For the same molecule, the remaining activity at 0.1 µM ([10]; CDK6/cyclin D1) was 30.7%, the remaining activity at 0.1 µM ([10]; CDK6/cyclin D3) was 68.2% and the remaining activity at 0.1 µM [11] was 96.1%. The remaining activity at 0.1 µM [12] was 105%, the remaining activity at 0.1 µM [13] was 51.7% and the remaining activity at 0.1 µM [14] was 101%. It also gave a remaining activity at 0.1 µM [15] of 106%, a remaining activity at 0.1 µM [16] of 71% and a remaining activity at 0.1 µM [17] of 96.7%. For the same molecule, the remaining activity at 0.1 µM [18] was 94.9%, the remaining activity at 0.1 µM [19] was 98.3% and the remaining activity at 0.1 µM [20] was 76.5%. For the same molecule, the “fold change in KHS activity following 12k exposure relative to 1” value ([21]; 0.025 μM) was 17.36 fold, the remaining activity at 0.1 µM [21] was 1.81% and the remaining activity at 0.1 µM [22] was 75.2%. It also gave a remaining activity at 0.1 µM [23] of 38.3% and a remaining activity at 0.1 µM [24] of 80.9%.
CN1CCN(Cc2ccc(-c3cnc4[nH]cc(-c5ccc6[nH]ccc6c5)c4c3)cc2)CC1 [Compound 1, 3-(1H-Indol-5-yl)-5-(4-((4-methylpiperazin-1-yl)methyl)phenyl)-1H-pyrrolo[2,3-b]pyridine, reference compound] showed a remaining activity at 0.1 µM [1] of 101%, a remaining activity at 0.1 µM [2] of 84.7% and a remaining activity at 0.1 µM [3] of 90%. It also gave a remaining activity at 0.1 µM [4] of 76.8%, a remaining activity at 0.1 µM [5] of 98.6% and a remaining activity at 0.1 µM [6] of 71.2%. It also gave a remaining activity at 0.1 µM [7] of 72.6%, a remaining activity at 0.1 µM [8] of 90.8% and a remaining activity at 0.1 µM [9] of 106%. It also gave a remaining activity at 0.1 µM ([10]; CDK6/cyclin D1) of 63.1%, a remaining activity at 0.1 µM ([10]; CDK6/cyclin D3) of 92.2% and a remaining activity at 0.1 µM [11] of 95.5%. For the same molecule, the remaining activity at 0.1 µM [12] was 107%, the remaining activity at 0.1 µM [13] was 78% and the remaining activity at 0.1 µM [14] was 104%. It also gave a remaining activity at 0.1 µM [15] of 92.9%, a remaining activity at 0.1 µM [16] of 48.1% and a remaining activity at 0.1 µM [17] of 101%. The remaining activity at 0.1 µM [18] was 97.7%, the remaining activity at 0.1 µM [19] was 91.1% and the remaining activity at 0.1 µM [20] was 80.1%. The remaining activity at 0.1 µM [21] was 31.4%, the remaining activity at 0.1 µM [22] was 82.8% and the remaining activity at 0.1 µM [23] was 43.2%. For the same molecule, the remaining activity at 0.1 µM [24] was 76.7%.

Reference: US12227500B2, “Substituted pyrrolo[2,3-b]pyridines for suppressing toxic endoplasmic reticulum stress” (THE TRUSTEES OF COLUMBIA UNIVERSITY IN THE CITY OF NEW YORK, priority 2018, dated 2025)
